The numbers were not newly measured in patent publication US6337095B1, “Process for the isolation of compound scopoletin useful as nitric oxide synthesis inhibitor” (Council of Scientific and Industrial Research, priority 2000, dated 2002), which cites them from elsewhere.

SMILES strings stand for the structures.

For the series, the system named is murine macrophages. Conditions: reported in literature (Planta Medica 65:400-403, 1999).

Turning to `COc1cc2ccc(=O)oc2cc1O` [scopoletin, 7-hydroxy-6-methoxy coumarin], the “inhibition of nitric oxide (NO) synthesis” value is reported as “showed inhibition”.
